Source: patent US11684646B2, “Methods and related compositions for reducing oxidative stress” (Gateway Health Alliances, Inc., priority 2019, dated 2023)

Experiments:
[1] = Ability to trap the hydroxyl radical (deoxyribose oxidation, Fenton reaction)
Text: I.2.3 Ability to Trap the Hydroxyl (^·OH) Radical (Halliwell et al., 1987)
PRINCIPLE: The […] capacity of plant extracts to trap the hydroxyl radical is based on the Fenton reaction, by measuring the production of ·OH radical and its effect on the oxidation and degradation bio-molecules such as deoxyribose in DNA. The system in this technique involves an auto-oxidation of the Fe^2+-EDTA complex in an aqueous medium to form the superoxide (O2^−·) anion which is rapidly dismutated into H2O2 at a pH of 7.4. The latter then reacts with Fe^2+ form ^·OH radicals in the presence of ascorbic acid which acts as catalyst (Fenton reaction). […]
PROTOCOL: The reaction mixture contained the following reagents: 0.4 mL of phosphate buffer (50 mmol/L, pH=7.4), 0.1 mL of different concentrations of the extract, 0.1 mL of EDTA (1.04 mmol/L), 0.1 mL of FeCl3 (1 mmol/L) and 0.1 mL 2-deoxyribose (60 mmol/L). the reaction was initiated by adding 0.1 mL of ascorbic acid (2 mmol/L) and 0.1 mL of H2O2 (10 mmol/L). after incubating for 1 hour at 37° C., 1 mL of TBA (10 g/L) were added into the reaction medium followed by 1 mL of HCl (25% v/v). […] The absorbance was then read at 532 nm. The capacity of extracts to trap the hydroxyl radical was expressed as percentage inhibition of the oxidation of 2-deoxyribose based on the following formula: […]

[2] = test system: Aluminum chloride induced neurotoxicity in Wistar rats; assay: Aluminum chloride induced neurotoxicity in rats: MDA in brain; assay type: in vivo
Description: (§1) [formula] I.3. Evaluation of Neuro-Protective Effects of the Hydro-Ethanolic Extract of B. toxisperma Against Aluminum Chloride Induced Neurotoxicity (Animal Model of Neurotoxicity)
(§2) Twenty albinos Wistar rats weighing between 230-250 g were used for this experiment in which the treatment lasted 3 days. The experimentation was conducted in the animal house of the Laboratory of Nutrition and Nutritional Biochemistry of the department of Biochemistry (Faculty of Science, University of Yaounde I). Animals were fed with standard feed and drinking water ad libitum.
(§3) Rats were divided into 5 groups of 4 rats each. A unique dose of 32.5 mg/kg BW of aluminum trichloride (AlCl3) was administered by intra peritoneal (i.p) route. […]
PROTOCOL: 100 μL of homogenate and 400 μL of TBA reagent (annex 3b) were introduced into glass test tubes (blank and assay) which were tightly corked. […] The tubes were later opened for any gas to evaporate before centrifugation for 5 minutes at 1500 revs/minute and the absorbance of the liquid phase was read at 532 nm against a blank which contained 400 μL of reagent solution and 100 μL of NaCl 0.9% incubated in similar conditions. The concentration of MDA was determined using it molar extinction coefficient (ε=1.53×10^5 M^−1·cm^−1) and the following formula.

[3] = test system: lipid peroxidation induced in brain homogenates; assay: Inhibition of FeSO4-induced lipid peroxidation in brain homogenates; assay type: biochemical, Wistar rats
Text: I.2.3 Inhibitory Activity of Lipid Peroxide in Nitro (Prasanth et al., 2000)
PRINCIPLE: Lipid peroxidation refers to the oxidative degradation of lipids which provoke a continuous increase in the permeability of cell membranes, inducing an irreversible alteration of the functional properties of the cell which could eventually lead to cytolysis. It is a radical chain reaction in which a free radical cleaves a hydrogen atom from membrane lipids in order to form a conjugated diene radical, which is oxidized to a peroxyl that in turn generates other radical reactions leading to the formation of terminal products such as MDA. Iron can stimulate lipid peroxidation either by Fenton reaction or by acceleration of peroxidation through the decomposition of lipid hydroperoxides into peroxyl or alkoxyl radicals; themselves capable of cleaving a hydrogen and perpetrating lipid peroxidation. The MDA from this reaction reacts with TBA to give pink colored chromophores which absorb at 532 nm. […]
The lipid peroxidation test was conducted as follows: 300 μL of plant extract at different concentrations and distilled water (control) were added to 500 μL of each homogenate. […] The absorbance was read at 532 nm. […] The IC50 were determined by extrapolating after drawing curves of lipid peroxidation percentage inhibition against the concentrations of plant extracts.

[4] = test system: Aluminum chloride induced neurotoxicity in Wistar rats; assay: Aluminum chloride induced neurotoxicity in rats: catalase activity in brain; assay type: in vivo
Description: as §1, §2, §3
(§4) PROTOCOL: The assay tubes contained 100 μL of homogenate or plasma or ovalbumin (caliber) and 3 mL of Biuret's reagent (annex 3c). […] The optical densities were read at 540 nm against a blank which contained 3 mL of reagent solution and 100 μL of NaCl 0.9% incubated under similar conditions. The total protein concentration was determined from the following equation: […]
PRINCIPLE: This method is based on the fact that the catalase present in hemolysates or homogenates reduces hydrogen peroxide (H2O2) to water (H2O) and oxygen (O2). […] Catalase activity is proportional to the optical density and is determined by use of a calibration curve. […]

[5] = test system: Aluminum chloride induced neurotoxicity in Wistar rats; assay: Aluminum chloride induced neurotoxicity in rats: thiol proteins in brain; assay type: in vivo; conditions: brain of rats; AlCl3 32.5 mg/kg i.p.; Vit E 100 mg/kg BW/day (VE100)
Description: as §1, §2
Rats were divided into 5 groups of 4 rats each. […]
as §4
PROTOCOL: 100 μL of homogenate and 900 μL of Ellman's reagent (annex 3d) were added into the assay tubes, homogenized and incubated at room temperature for 30 minutes before reading the optical densities at 412 nm against a blank which contained 900 μL the reagent solution and 100 μL of NaCl 0.9% incubated under similar conditions as the assay. […] Results were expressed as μmol/g of total proteins.

[6] = test system: Aluminum chloride induced neurotoxicity in Wistar rats; assay: Aluminum chloride treated rats: plasma creatinine, renal toxicity; assay type: in vivo
Description: as §1, §2
(§5) Rats were divided into 5 groups of 4 rats each. A unique dose of 32.5 mg/kg BW of aluminum trichloride (AlCl3) was administered by intra peritoneal (i.p) route. 24 hours later, different doses of plant extract and vitamin E (reference) were administered by oral route, using a gastro-oesophagian probe once a day for 3 days.
24 hours after the last administration, animals were sacrificed under mild anesthesia in Ether vapor following a 12 hours fasting. […]
PROTOCOL: 1 mL of working solution (annex 3f) was placed into test tubes and 0.1 mL of plasma and caliber added respectively to assay and blank tubes. Tubes were agitated and their optical densities read 520 nm against a blank; within the 20 seconds that followed the stabilization of the mixture. […] The concentration of creatinine was determined from the following equation: […]

[7] = test system: Aluminum chloride induced neurotoxicity in Wistar rats; assay: Aluminum chloride treated rats: plasma transaminases ASAT (GOT) and ALAT (GPT), hepatic toxicity; assay type: in vivo
Description: as §1, §2, §5
24 hours after the last administration, animals were sacrificed under mild anesthesia in Ether vapor following a 12 hours fasting. The rats' bloods were collected in EDTA tubes. Cervical dislocations were performed immediately after blood collections, to remove the brains which were then rinsed in physiologic solution (0.9% NaCl) and weighed. Plasmas were extracted from the bloods collected and the brains were used to prepare 10% homogenates which served for biochemical analysis.
The blood in EDTA tubes were allowed to stand at room temperature, then centrifuged for 10 minutes at 900 revs/minute, the resulting liquid phase (plasma) was then collected into Eppendorf tubes and stored at −20° C.
1.3.3.3.1. Evaluation of the Activities of the Oxaloglutamate (GOT) and Glutamo-Pyruvate (GPT) Transaminases (Reitman et Franckel, 1957) (Hepatic Toxicity) […]
PROTOCOL: EVALUATION DE L′ACTIVITÉ DE L′ASAT (GOT): 100 μL of substrate solution (annex 3e) were put into tubes, pre-incubated at 37° C. for 5 minutes then 0.02 mL of plasma was added. […] Optical densities were read at 505 nm against a blank (made up of 100 μL of substrate solution and 0.02 mL of NaCl 0.9%) titrated under similar conditions. […]

[8] = Ability to trap the DPPH radical; conditions: 5 μg/mL
Description: PRINCIPLE: This method is based on the reduction of an alcoholic solution of the stable form of the DPPH. radical in the presence of an antioxidant donor of hydrogen (AH), which leads to the formation of a non-radical form DPPH-H. This reduction causes a color change from violet to yellow which could be studied at 517 nm. The faster the color change occurs, the more the donor is considered as a strong antioxidant. PROTOCOL: 50 μL of different concentrations of each extract was added to 1.950 mL of freshly prepared methanolic DPPH. […] After incubation for 30 minutes in the dark and at room temperature, the absorbance was read at 517 nm. Methanol was used as control and ascorbic acid was used as standard. The ability to trap DPPH^· was expressed in percentage inhibition as calculated using the following equation: [formula] The inhibitory concentrations 50 (IC50) were later determined by extrapolating after drawing curves of percentage inhibition against concentration. All samples were analyzed in triplicates. I.4.3. Evaluation of DPPH^· Anti-Radical Activity of Rough Extract Fractions This activity was evaluated using the protocol of Sanchez-Moreno et al. (1998) as described earlier.

[9] = HEEBT 150 and 300 mg/kg BW, vitamin E, p<0.05
[10] = HEEBT 150 and 300 mg/kg BW, vitamin E
[11] = plasma, AlCl3 32.5 mg/kg i.p., Vit E 100 mg/kg BW/day (VE100)

| IC50 ·OH scavenging activity [1] [mg/mL] | IC50 for lipid peroxidation induced in the brain [3] [mg/mL] | Molecule | effect on MDA level in rats compared with the positive control (PC) [2, 9] | MDA ([2]; brain of rats, AlCl3 32.5 mg/kg i.p., Vit E 100 mg/kg BW/day oral, 3 days (VE100)) [µM] | percentage inhibition of lipid peroxidation in brain homogenates ([3]; 1000 m/mL) [%] | effect on catalase activity compared with the PC group [4, 9] | Catalase ([4]; brain of rats, AlCl3 32.5 mg/kg i.p., Vit E 100 mg/kg BW/day (VE100)) | Thiols proteins [5] | effect on plasma creatinine after aluminum [6, 10] | Créatinine [6, 11] [mg/dL] | effect on activities of plasma transaminases after aluminum [7, 10] | ALAT [7, 11] [unité d'ALAT/mL] | ASAT [7, 11] [unité d'ASAT/mL] | % inhibition of DPPH radical [8] [%] |
| --- | --- | --- | --- | --- | --- | --- | --- | --- | --- | --- | --- | --- | --- | --- |
| 25.3 | 0.574 | Vitamin E | significantly (p<0.05) reduced | 4.631 ± 0.652 | 60.427 | significantly (p<0.05) restore | 0.030 ± 0.003 mM H2O2/min/mg of proteins | 0.299 ± 0.071 μg/mg of proteins | tend to normalize | 2.297 ± 0.181 | tend to normalize | 60.135 ± 7.453 | 76.363 ± 1.868 | – |
| – | – | O=C1O[C@H]([C@@H](O)CO)C(O)=C1O [Vitamin C, ascorbic acid] | – | – | – | – | – | – | – | – | – | – | – | 54 |
